Measurements taken from the NIST ThermoML archive (doi:10.1021/je300941v).

Experiment: xn = mol fraction of the nth substance listed
Details: 101 kPa, Liquid, Vibrating tube method

CCCC[N+]1(C)CCCC1.O=S(=O)([N-]S(=O)(=O)C(F)(F)F)C(F)(F)F + CNC=O
mass density [kg/m3]
Details | 293.15 K | 298.15 K | 303.15 K | 308.15 K | 313.15 K | 318.15 K | 323.15 K
x1 = 0.0246 | 1055.01 | 1050.43 | 1045.86 | 1041.32 | 1036.71 | 1032 | 1027.24
x1 = 0.0444 | 1087.36 | 1082.72 | 1078.08 | 1073.48 | 1068.79 | 1064.04 | 1059.25
x1 = 0.0743 | 1124.18 | 1119.6 | 1114.93 | 1110.11 | 1105.37 | 1100.74 | 1095.89
x1 = 0.1571 | 1192.03 | 1187.22 | 1182.56 | 1177.83 | 1173.12 | 1168.24 | 1163.34
x1 = 0.2195 | 1227.49 | 1222.75 | 1218 | 1213.28 | 1208.51 | 1203.7 | 1198.78
x1 = 0.2768 | 1253.4 | 1248.66 | 1243.85 | 1239.09 | 1234.35 | 1229.57 | 1224.76
x1 = 0.3721 | 1288.07 | 1283.27 | 1278.56 | 1273.79 | 1269.04 | 1264.27 | 1259.52
x1 = 0.4755 | 1318.98 | 1314.25 | 1309.5 | 1304.78 | 1300.03 | 1295.32 | 1290.63
x1 = 0.588 | 1344.35 | 1339.65 | 1334.96 | 1330.34 | 1325.69 | 1320.95 | 1316.2
x1 = 0.631 | 1352.66 | 1347.99 | 1343.33 | 1338.74 | 1334.09 | 1329.42 | 1324.65
x1 = 0.7045 | 1364.77 | 1360 | 1355.4 | 1350.82 | 1346.19 | 1341.54 | 1336.77
x1 = 0.7807 | 1375.58 | 1370.92 | 1366.37 | 1361.76 | 1357.23 | 1352.53 | 1347.89
x1 = 0.9067 | 1390.15 | 1385.5 | 1380.94 | 1376.4 | 1371.81 | 1367.24 | 1362.53
